Patent US9815878B2, “Use of PEDF-derived polypeptides for preventing and/or ameliorating skin aging” (MacKay Memorial Hospital, priority 2012, dated 2017)
No end group written: not given here.

Key:
[1] = test system: primary mouse dermal fibroblasts; test: Dermal fibroblast proliferation in vitro, BrdU labeling assay; assay type: cell-based, C57BL/6 mouse; conditions: 24 hours; for BrdU/Vimentin Labeling Index (%): 50 nM peptide in 1% FBS medium, BrdU 2 hours
Protocol: (§1) Full-thickness skin tissue was obtained from the dorsum of C57BL/6 mouse. The subcutaneous tissue was carefully dissected from the skin and washed three times in sterile phosphate-buffered saline (PBS). The tissue was then cut into small pieces (1-2 mm^3). After being digested with 0.1% dispase at 4° C. overnight, the epidermal layers were removed, and the remaining dermal parts were further digested with 0.1% collagenase I at 37° C. for another 4 hours. The digested cells were then collected by centrifugation (400 g for 5 minutes) and resuspended in high-glucose DMEM supplemented with 10% FBS, 2 mM L-glutamine, and 1% penicillin-streptomycin antibiotic mixture. Cells were seeded onto tissue-culture plates (Falcon Labware; NJ, USA) at 1×10^3 cells/cm^2 and maintained at 37° C. with 5% CO2. After 24 hours, the medium was discarded to remove residual non-adherent cells, and cell culture was replenished with a fresh medium. For passage, near-confluent cells were harvested with 0.25% trypsin/EDTA.
After fixing with 4% paraformaldehyde, cells were exposed to cold methanol for 2 minutes, and then treated with 1 N HCl at room temperature for 1 hour before performing immunofluorescence staining.
BrdU-labeled DNA was detected by polyclonal anti-BrdU antibody and rhodamine-conjugated donkey anti-rabbit IgG. Nuclei were counterstained with Hoechst 33258 (blue).
Primary mouse dermal fibroblasts were isolated and cultured as described in the “Materials and Methods” section. The dermal fibroblast at passage 2 were seeded at gelatin-coated slide in a 6-well plate at a density of 2×10^5 cells per well and cultured in growth medium (DMEM 10% FBS) for 24 hours before being replaced by a basal growth medium with 1% FBS only (control group) or with 1% FBS plus an additional 50 nM of PEDF-derived peptide (i.e., 29-mer, 24-mer, 20-mer, 18-mer, Mo 29-mer, or Mo 20-mer) for 24 hours. For BrdU labeling assay, BrdU (final concentration, 10 μM) was added to the culture for 2 hours. The level of BrdU- and vimentin-double positive cells was expressed as the percentage of BrdU- and vimentin-double positive cells per total vimentin-positive cells (the BrdU/Vimentin Labeling Index), and the results were summarized in Table 2.

MMP-1 = test: UVB-induced MMP-1 protein expression in WS-1 cells, western blotting; assay type: cell-based, human
Protocol: Human skin fibroblast WS-1 cell line was obtained from Food Industry Research and Development Institute (Hsin-Chu, Taiwan). The WS-1 cells were maintained in a 37° C., 5% CO2 humidified incubator as monolayers in culture flasks. They were grown in 10% FBS-DMEM supplemented with 2 mM L-glutamine, 0.1 mM non-essential amino acids, 1% penicillin/streptomycin. For passage, near-confluent cells were sub-cultured by 0.25% trypsin/EDTA.
Skin tissues were homogenized in ice-cold lysis buffer containing 20 mM HEPES (pH 7.4), 150 mM NaCl, 1% SDS, 1 mM ethylenediamine tetraacetic acid (EDTA), 5 mM phenylmethanesulfonyl fluoride (PMSF), and 1 mM dithiothreitol (DTT), 1% Triton X-100, with freshly added protease inhibitor cocktail (Roche, Indianapolis, Ind.). Homogenates were then centrifuged at 12,000 g for 30 minutes at 4° C., and supernatants were then collected and stored at −70° C. Protein contents in lysates were determined using the Bradford assay. Whole cell lysates were prepared using the above lysis buffer. Aliquots of the lysates were then resolved on a SDS-PAGE and then electrotransferred to polyvinylidene difluoride (PVDF) membranes (Millipore, Bedford, Mass., USA) and processed for immunoblot analysis.
Antibodies used in the immunoblot study included anti-type I collagen 1A1 antibody (1:1000 dilution), anti-MMP-1 antibody (1:500 dilution) and anti-β-actin antibody (1:10000 dilution). Proteins of interest were detected using the appropriate IgG-HRP secondary antibody and ECL reagent (Amersham, Arlington Heights, Ill., USA). X-ray films were scanned on a Model GS-700 Imaging Densitometer (Bio-Rad Laboratories, Hercules, Calif.) and analyzed using Labworks 4.0 software. For quantification, blots from at least three independent experiments were used.
WS-1 were seeded on a six-well plate at a density of 1×10^5 cells per well and grown in the 10% FBS-DMEM growth medium for 24 hours and then incubated with 1% FBS-DMEM supplemented with or without 100 nM PEDF peptide for further 24 hours. The cells were washed twice with phosphate buffered saline (PBS) and exposed to UVB radiation covered with PBS. The UVB treatment was conducted in a cell culture hood by using a UVB lamp (model XL-1000B, Spectrolinker™ Inc.) at a final dose of 15 mJ/cm^2 for about 100 seconds. Cell viability was assayed using trapan blue exclusion assay (>95%). After UVB irradiation, PBS was replaced with 1% FBS-DMEM with or without PEDF peptide for further 48 hours and then protein extracts were assayed by western blotting for the expression of MMP-1 protein. Cells that were not subjected to UVB irradiation were used as control (normal). The expression level of MMP-1 was normalized with the expression level in the Vehicle/UVB group (set to 100%), and quantitative results are summarized in Table 6.

MMP-13 = test: UVB-induced MMP-13 mRNA expression in primary mouse dermal fibroblasts, RT-PCR; assay type: cell-based
Protocol: as §1
The total RNA was extracted from cells using the TRIzol (Invitrogen) and treated with RNase-free DNase I (Qiagen, Santa Clarita, Calif.) to remove genomic DNA and then purified with an RNA purification kit (Dynabeads; Invitrogen). 1 μg of total RNA retrieved from primary dermal fibroblast was reverse-transcribed into cDNA by 200 units of expand Reverse-Transcriptase (Roche, Mannheim, Germany) in 20 μl of reaction buffer containing 0.25 μg of random primers and 0.8 mM dNTPs at 42° C. for 1 hour. 2 μl of the cDNA was used for the PCR reaction as templates. PCR was performed in a 30 μl volume containing 15 μl of EconoTaq® PLUS GREEN 2× Master Mix (Lucigen® Corp.), 1 μM of each primer and 2 μl of template DNA. cDNA was synthesized in an 18-22 cycle amplification reaction (denaturation, 20 s, 94° C.; annealing, 30 s, 57° C.; and polymerization, 40 s, 72° C.). The number of cycles for the primer set was chosen to be in the linear range of amplification. The sequences of specific PCR primers were mouse MMP-13 (accession number: NM_008607) sense, […] (SEQ ID NO: 12); antisense, […] (SEQ ID NO: 13); PCR product: 201 bp; and mouse glyceraldehyde 3-phosphate dehydrogenase (GAPDH; accession number: M32599) sense, […] (SEQ ID NO: 14); and anti-sense, […] (SEQ ID NO: 15); PCR product: 223 bp.). The PCR products were electrophoresed in a 2% agarose gel containing ethidium bromide and visualized by UV illumination. The intensities of the PCR products were quantified densitometrically using a FUJI LAS-3000 system and Multi Gauge Ver. 1.01 software (Fujifilm, Tokyo, Japan).
Primary mouse dermal fibroblasts in passage 2 of monolayer cultures were incubated with 1% FBS-DMEM supplemented with or without 100 nM PEDF peptide for 24 hours, and then subjected to UVB irradiation as described above. After UVB irradiation, PBS was replaced with 1% FBS-DMEM with or without PEDF peptide for further 24 hours, and then cellular total RNAs were extracted for subsequent RT-PCR analysis. The expression level of MMP-13 mRNA was normalized with the expression level in the Vehicle/UVB group (set to 100%), and quantitative results are summarized in Table 7.

[2] = Transdermal delivery of FITC-conjugated 29-mer ointment with or without microneedle patch, fluorescent microscopy of skin; assay type: in vivo, C57BL/6 mice; conditions: 24 hours later
Protocol: The Fluorescein (FITC)-conjugated 29-mer peptide was used to investigate the in vivo transdermal delivery of the present PEDF peptides.
First, the dorsal hair of 8-wk-old male C57BL/6 mice were removed using a melted wax/rosin mixture (1:1) under general anesthesia. On the next day, the ointment containing the FITC-conjugated 29-mer peptide (25 μM) was applied onto the dorsal skin of the mice, and then a microneedle patch (3M™ Microchannel Skin System; provided from 3M Singapore) was gently pressed against the dorsal skin so that the microneedles penetrated less than 100 microns into the skin (the FITC-29 mer/MN group). As to the control group (FITC-29 mer/CT), the mice received the ointment without subsequent microneedle treatment. Twenty-four hours later, the skin was harvested, fixed, cryosectioned and examined by fluorescent microscopy.
The H&E stained section in the left panel of FIG. 1 highlights the epidermis and dermis of the specimen. The fluorescence images in the middle and right panels of FIG. 1 illustrate the distribution of FITC-conjugated 29-mer across the skin.

For “SLGAEHRTESVIHRALYYDL [Mo 20-mer, synthetic peptide derived from mouse PEDF]”, which “BrdU/Vimentin Labeling Index (%)” value [1] is on record?
Its value is 11.3 ± 1.6 %.

Which results are given for “SLGAEQRTESIIHRALYYDLISSP [24-mer, synthetic peptide corresponding to residues 93-116 of human PEDF]”?
BrdU/Vimentin Labeling Index (%) [1]: 10.1 ± 1.9 %; proliferation relative to control medium ([1]; 50 nM peptide): about 5 fold; MMP-1 Expression Level (%) (MMP-1; 100 nM peptide 24 h before and 48 h after UVB 15 mJ/cm^2, Vehicle/UVB set to 100%): 48 ± 7.2 %; MMP-1 protein level relative to vehicle/UVB group (MMP-1; pre-incubation with peptide, UVB): about half; MMP-13 Expression Level (%) (MMP-13; 100 nM peptide 24 h before and 24 h after UVB 15 mJ/cm^2, mRNA, Vehicle/UVB set to 100%): 16.3 ± 1.5 %; effect on UVB-induced upregulation of MMP-13 (MMP-13; cells pretreated with peptide, UVB): substantially reduced

With “FITC-conjugated 29-mer: Fluorescein (FITC)-conjugated 29-mer peptide used to investigate in vivo transdermal delivery (SLGAEQRTESIIHRALYYDLISSPDIHGT; also: FITC conjugated, site not given here)” as the substance, how does the “distribution of fluorescein signal across the skin (delivery to dermis)” value ([2]; ointment 25 μM on dorsal skin plus microneedle patch (FITC-29 mer/MN)) read?
The value was “successfully delivered to the dermis”.

What about the “distribution of fluorescein signal across the skin (delivery to dermis)” value ([2]; ointment 25 μM on dorsal skin without microneedle treatment (FITC-29 mer/CT)) of the same substance?
The value was “barely detectable in the dermis”.

Which “BrdU/Vimentin Labeling Index (%)” value [1] does the source give for “SLGAEHRTESVIHRALYYDLITNPDIHST [Mo 29-mer, synthetic peptide derived from mouse PEDF]” here?
Its value is 11.1 ± 2.0 %.
